Experimental data published in patent US10071996B2, “Optical isomer of 1,4-benzothiazepine-1-oxide derivative, and pharmaceutical composition prepared using same” (AETAS PHARMA CO., LTD., priority 2014, dated 2018).

Tests used:
[1] = Stability of the compound at room temperature; type: physicochemical
Solubility in solvents = type: physicochemical
anaesthetized rat = test: Influence on circulatory system (heart rate, blood pressure, max dP/dt, min dP/dt) in anaesthetized rat, continuous intravenous administration; type: in vivo; conditions: hydrochloride salt, i.v. continuous 0.1 mg/kg/minute for 20 minutes, difference vs 0 minute value; for change in the heart rate: FIG. 1; for change in blood pressure: FIG. 2; for change in left ventricular contraction function (max dP/dt): FIG. 3; for change in left ventricular relaxation function (min dP/dt): FIG. 4
Description: Measurement of heart rate, blood pressure, left ventricular contraction function (max dP/dt), and left ventricular relaxation function (min dP/dt)
Test method: In the present test, by using an anaesthetized rat, the influence of the hydrochloride salt of the first optical isomer component (A) and the second optical isomer component (B), each administered intravenously and continuously, on a circulatory system was determined. The test was performed with n=5 for each group. Each of the first component (A) or the second component (B) was continuously administered for 20 minutes at 0.1 mg/kg/minute, and then the measurement of heart rate, blood pressure, max dP/dt, and min dP/dt was performed. Each parameter was measured at 0 minute, 1 minute, 5 minutes, 10 minutes, 15 minutes, 20 minutes, 25 minutes, 30 minutes, 35 minutes, and 40 minutes after the administration, and the result was expressed in terms of a difference compared to the 0 minute value (previous value (i.e., control value)). The measurement value was expressed in terms of mean value±SD.
For the data of FIG. 1 to FIG. 4, determination of a significant difference was carried out by using t test.

anaesthetized beagle dog [2] = test: Influence on atrial effective refractory period in anaesthetized beagle dog; type: in vivo; conditions: FIG. 5; for atrial effective refractory period (% change rate vs control value 100%): hydrochloride salt, i.v. 10 minutes at 0.1 mg/kg/minute then 20 minutes at 0.05 mg/kg/minute, pacing interval 250 msec
Description: Influence on Atrial Effective Refractory Period
Test method: In the present test, by using an anaesthetized beagle dog, the influence of hydrochloride salt of the first optical isomer component (A) and the second optical isomer component (B), each administered intravenously and continuously, on atrial effective refractory period was determined. The test was performed with n=5 for each group. The test compound was continuously administered for 10 minutes at 0.1 mg/kg/minute and then for 20 minutes at 0.05 mg/kg/minute. Measurement of atrial effective refractory period till 270 minutes after the termination of the administration was carried out. The pacing interval was 250 msec. The measurement value was expressed in terms of mean value±SD.
Test results: The test results are expressed in terms of % change rate when the previous value (i.e., control value) of atrial effective refractory period is set at 100%.
For the data of FIG. 5, determination of a significant difference was carried out by using t test.

anaesthetized beagle dog [3] = test: Influence on ventricular effective refractory period in anaesthetized beagle dog; type: in vivo; conditions: for ventricular effective refractory period (% change rate vs control value 100%): anaesthetized beagle dog, i.v. rapid 5 minutes at 1 mg/kg/minute, measured immediately after administration, pacing interval 250 msec, FIG. 6; for extension of ventricular effective refractory period: beagle dog
Description: Influence on Ventricular Effective Refractory Period Test method: In the present test, by using an anaesthetized beagle dog, the influence of the first optical isomer component (A) and the second optical isomer component (B), each administered intravenously and rapidly, on ventricular effective refractory period was determined. The test was performed with n=5 for each group. The test compound was rapidly administered for 5 minutes at 1 mg/kg/minute. Measurement of ventricular effective refractory period was carried out immediately after the termination of the administration. The pacing interval was 250 msec. The measurement value was expressed in terms of mean value±SD. Test results: The test results are expressed in terms of % change rate when the previous value (i.e., control value) of ventricular effective refractory period is set at 100%.

COc1ccc2c(c1)CN(C(=O)CCN1CCC(Cc3ccccc3)CC1)CC[S+]2[O-] (racemic) [[Ia], 4-[3-(4-benzylpiperidin-1-yl)propionyl]-7-methoxy-2,3,4,5-tetrahydro-1,4-benzothiazepine-1-oxide]
stability to oxygen, humidity, acid, and alkali [1]: stable
solubility in ethanol and dimethyl sulfoxide (DMSO) (Solubility in solvents; free form, amorphous solid): easily dissolved
skin irritating property (Skin irritating property): has a skin irritating property

COc1ccc2c(c1)CN(C(=O)CCN1CCC(Cc3ccccc3)CC1)CC[S+]2[O-] (single isomer, unassigned) [first optical isomer component (A), 4-[3-(4-benzylpiperidin-1-yl)propionyl]-7-methoxy-2,3,4,5-tetrahydro-1,4-benzothiazepine-1-oxide]
change in the heart rate (anaesthetized rat): mildly increased
change in blood pressure (anaesthetized rat): mildly increased
change in left ventricular contraction function (max dP/dt) (anaesthetized rat): enhanced
change in left ventricular relaxation function (min dP/dt) (anaesthetized rat): enhanced
atrial effective refractory period (% change rate vs control value 100%) (anaesthetized beagle dog [2]): extended
atrial effective refractory period extension compared with the other enantiomer (anaesthetized beagle dog [2]; same regimen): longer extension
ventricular effective refractory period (% change rate vs control value 100%) (anaesthetized beagle dog [3]; 1 mg/kg): not extended
extension of ventricular effective refractory period (anaesthetized beagle dog [3]; amount of up to 8 mg/Kg): does not show any extension

COc1ccc2c(c1)CN(C(=O)CCN1CCC(Cc3ccccc3)CC1)CC[S+]2[O-] (single isomer, unassigned) [second optical isomer component (B), 4-[3-(4-benzylpiperidin-1-yl)propionyl]-7-methoxy-2,3,4,5-tetrahydro-1,4-benzothiazepine-1-oxide]
change in the heart rate (anaesthetized rat): decreased
change in blood pressure (anaesthetized rat): decreased
change in left ventricular contraction function (max dP/dt) (anaesthetized rat): reduced
change in left ventricular relaxation function (min dP/dt) (anaesthetized rat): reduced
atrial effective refractory period (% change rate vs control value 100%) (anaesthetized beagle dog [2]): extended
ventricular effective refractory period (% change rate vs control value 100%) (anaesthetized beagle dog [3]; 1 mg/kg): significantly extended
extension of ventricular effective refractory period (anaesthetized beagle dog [3]; 1 mg/kg, dose dependent): can extend ventricular effective refractory period

COc1ccc2c(c1)CN(C(=O)CCN1CCC(Cc3ccccc3)CC1)CC[S+]2[O-] (stereo not shown) [oxalate of the compound [Ia], 4-[3-(4-benzylpiperidin-1-yl)propionyl]-7-methoxy-2,3,4,5-tetrahydro-1,4-benzothiazepine-1-oxide]
solubility in water, ethanol, and dimethyl sulfoxide (Solubility in solvents; oxalate, crystal): soluble
